Assay [1] concerns Thanatephorus cucumeris (Rhizoctonia solani).
Description: A synergistic effect exists whenever the action of an active ingredient combination is greater than the sum of the actions of the individual components.
ppm=milligrams of active ingredient (=a.i.) per liter of spray mixture X=% action by active ingredient A) using p ppm of active ingredient Y=% action by active ingredient B) using q ppm of active ingredient. According to COLBY, the expected (additive) action of active ingredients A)+B) using p+q ppm of active ingredient is
If the action actually observed (O) is greater than the expected action (E), then the action of the combination is super-additive, i.e. there is a synergistic effect. In mathematical terms, synergism corresponds to a positive value for the difference of (O-E). In the case of purely complementary addition of activities (expected activity), said difference (O-E) is zero. A negative value of said difference (O-E) signals a loss of activity compared to the expected activity.
Method Description Liquid Culture Tests in Well Plates for Mixtures
Thanatephorus cucumeris (Rhizoctonia solani)/Liquid Culture (Foot Rot, Damping-Off)
Mycelia fragments of a newly grown liquid culture of the fungus are directly mixed into nutrient broth (PDB potato dextrose broth). After placing a (DMSO) solution of the test compounds into a microtiter plate (96-well format), the nutrient broth containing the fungal material is added. The test plates are incubated at 24° C. and the inhibition of growth is determined photometrically 3-4 days after application and percent antifungal activity relative to the untreated check is calculated.
In assay [2] the test system is Monographella nivalis (Microdochium nivale). As to the kind of experiment: Monographella nivalis (Microdochium nivale) / liquid culture (foot rot cereals), well plate mixture test. The assay is classed as cell-based.
The test system of the next assay is Ustilago nuda. The assay can be described thus: Ustilago nuda / liquid culture (barley loose smut), well plate mixture test. Format: cell-based.
In another assay the test system is Pythium ultimum. As to the kind of experiment: Pythium ultimum / liquid culture (seedling damping off), well plate mixture test. The assay is classed as cell-based.
For the next assay, the system named is Fusarium culmorum. The assay can be described thus: microbe, parasite or virus in culture. Format: cell-based. As to conditions: read-out: % efficacy observed.
In another assay the test system is Gaeumannomyces graminis. The assay can be described thus: Gaeumannomyces graminis / liquid culture (take-all of cereals), well plate mixture test. Format: cell-based.
The mark [3] stands for this setting: Thanatephorus cucumeris, read-out: % efficacy observed.

Values joined by “and” are separate entries in the source; they are usually repeats but may differ in a detail not shown here. Equal values may be shown once. Read-outs that look alike come from different tables or passages of the source.

With `Cn1cc(C(=O)Nc2ccccc2-c2cc(F)c(F)c(F)c2)c(C(F)F)n1` [Fluxapyroxad, fluxapyroxad], the “% efficacy observed” value in assay [1] (Fluxapyroxad 0.1875 mg ai/l) is reported as 29.7%; in assay [1] (Fluxapyroxad 0.3750 mg ai/l) it was 61.8%; in assay [1] (Fluxapyroxad 0.7500 mg ai/l), 71.9%; in assay [1] (Fluxapyroxad 1.5000 mg ai/l), 67.9%; in assay [2] (Fluxapyroxad 0.1875 mg ai/l), 22.2%; in assay [2] (Fluxapyroxad 0.3750 mg ai/l), 55.5%. For the same compound, the “% efficacy observed” value in assay [2] (Fluxapyroxad 0.7500 mg ai/l) is reported as 65.4%.
For `Cc1nn(C)c(F)c1C(=O)Nc1ccccc1C(C)CC(C)C` (stereo not shown) [Penflufen, penflufen], the “% efficacy observed” value in the assay with Ustilago nuda (Penflufen 0.0039 mg ai/l) came out at 23.1%; in assay [1] (Penflufen 0.0156 mg ai/l) it was 20.8%; in assay [1] (Penflufen 0.0313 mg ai/l) it was 7.5%; in assay [1] (Penflufen 0.0625 mg ai/l) it was 42.0%; in assay [1] (Penflufen 0.1250 mg ai/l), 64.3%; in assay [1] (Penflufen 0.2500 mg ai/l), 83.3%. In addition, the figures for the “% efficacy observed” value in assay [2] (Penflufen 1.0000 mg ai/l) and in assay [2] (Penflufen 2.0000 mg ai/l) were 19.4% and 56.8%, respectively.
For `COCC(=O)N(c1c(C)cccc1C)[C@H](C)C(=O)OC` [Mefenoxam, mefenoxam], the “% efficacy observed” value is given as 34.1% with Pythium ultimum (Mefenoxam 0.0078 mg ai/l); 37.8% in the assay on Pythium ultimum (Mefenoxam 0.0156 mg ai/l); 70.2% in the assay on Pythium ultimum (Mefenoxam 0.0313 mg ai/l); 71.3% with Pythium ultimum (Mefenoxam 0.0625 mg ai/l); 84.4% in the assay with Pythium ultimum (Mefenoxam 0.1250 mg ai/l).
Turning to `COc1ccc(CC(=O)N(O)Cc2ccc(F)cc2)cc1` [Compound D4], the “% efficacy observed” value with Ustilago nuda (D4 0.0391 mg ai/l) is 8.7%; with Ustilago nuda (D4 0.0781 mg ai/l) it was 2.5% and 0.2%; in the assay with Ustilago nuda (D4 0.1563 mg ai/l), 3.7%; in assay [1] (D4 0.6250 mg ai/l), 2.1% and 4.6%; in the assay on Gaeumannomyces graminis (D4 0.000000 mg ai/l), 5.3%. Also, the Emax at 0.3125 µg/mL was found to be 0% with Ustilago nuda (Ustilago nuda, D4 0.3125 mg ai/l, read-out: % efficacy observed); 0% with Gaeumannomyces graminis (Gaeumannomyces graminis, D4 0.3125 mg ai/l, read-out: % efficacy observed); 0% in the assay on Pythium ultimum (Globisporangium ultimum, D4 0.3125 mg ai/l, read-out: % efficacy observed); 10.2% in assay [2] (Monographella nivalis, D4 0.3125 mg ai/l, read-out: % efficacy observed). For the same compound, the Emax at 0.625 µg/mL stood at 0% with Ustilago nuda (Ustilago nuda, D4 0.6250 mg ai/l, read-out: % efficacy observed); 0% with Gaeumannomyces graminis (Gaeumannomyces graminis, D4 0.6250 mg ai/l, read-out: % efficacy observed); 0% with Pythium ultimum (Globisporangium ultimum, D4 0.6250 mg ai/l, read-out: % efficacy observed); 0% in assay [2] (Monographella nivalis, D4 0.6250 mg ai/l, read-out: % efficacy observed). Moreover, the Emax at 1.25 µg/mL with Ustilago nuda (Ustilago nuda, D4 1.2500 mg ai/l, read-out: % efficacy observed) was determined as 0%; in the assay with Gaeumannomyces graminis (Gaeumannomyces graminis, D4 1.2500 mg ai/l, read-out: % efficacy observed), 0%; in the assay on Pythium ultimum (Globisporangium ultimum, D4 1.2500 mg ai/l, read-out: % efficacy observed), 0%. For the same compound, the Emax at 2.5 µg/mL is 7% in the assay on Ustilago nuda (Ustilago nuda, D4 2.5000 mg ai/l, read-out: % efficacy observed); 0% with Gaeumannomyces graminis (Gaeumannomyces graminis, D4 2.5000 mg ai/l, read-out: % efficacy observed); 0% in the assay with Pythium ultimum (Globisporangium ultimum, D4 2.5000 mg ai/l, read-out: % efficacy observed); 2.8% in assay [2] (Monographella nivalis, D4 2.5000 mg ai/l, read-out: % efficacy observed). For the same compound, the Emax at 20 µg/mL in the assay on Ustilago nuda (Ustilago nuda, D4 20.0000 mg ai/l, read-out: % efficacy observed) came out at 1.3%; with Fusarium culmorum, 0%; in assay [1] (Thanatephorus cucumeris, read-out: % efficacy observed, D4 20.0000 mg ai/l), 0%; with Gaeumannomyces graminis (Gaeumannomyces graminis, D4 20.0000 mg ai/l, read-out: % efficacy observed), 0%; in assay [2] (Monographella nivalis, D4 20.0000 mg ai/l, read-out: % efficacy observed), 1.4%. Besides, the Emax at 10 µg/mL is 0% with Fusarium culmorum; 0% in the assay on Gaeumannomyces graminis (Gaeumannomyces graminis, D4 10.0000 mg ai/l, read-out: % efficacy observed); 6.4% in assay [2] (Monographella nivalis, D4 10.0000 mg ai/l, read-out: % efficacy observed). In addition, the Emax at 0.0781 µg/mL is 0% in assay [1] (Thanatephorus cucumeris, read-out: % efficacy observed, D4 0.0781 mg ai/l) and 0% in the assay with Gaeumannomyces graminis (Gaeumannomyces graminis, D4 0.0781 mg ai/l, read-out: % efficacy observed). Besides, the Emax at 0.1563 µg/mL worked out at 0% in assay [1] (Thanatephorus cucumeris, read-out: % efficacy observed, D4 0.1563 mg ai/l); 0% with Gaeumannomyces graminis (Gaeumannomyces graminis, D4 0.1563 mg ai/l, read-out: % efficacy observed); 0% in the assay with Pythium ultimum (Globisporangium ultimum, D4 0.1563 mg ai/l, read-out: % efficacy observed); 6.7% in assay [2] (Monographella nivalis, D4 0.1563 mg ai/l, read-out: % efficacy observed). The Emax at 5 µg/mL in the assay with Gaeumannomyces graminis (Gaeumannomyces graminis, D4 5.0000 mg ai/l, read-out: % efficacy observed) came to 0%; in assay [2] (Monographella nivalis, D4 5.0000 mg ai/l, read-out: % efficacy observed) it was 2.1%. Further, the Emax at 0.0391 µg/mL in the assay on Pythium ultimum (Globisporangium ultimum, D4 0.0391 mg ai/l, read-out: % efficacy observed) turned out to be 0%.
Regarding `c1ccc2[nH]c(-c3cscn3)nc2c1` [Thiabendazole, thiabendazole], in the assay on Fusarium culmorum, the Emax at 3 µg/mL came to 45.3% and the Emax at 6 µg/mL came to 71.7%.
As to `CC(C)(C)C(O)(CCc1ccc(Cl)cc1)Cn1cncn1` (stereo not shown) [Tebuconazole, tebuconazole], the Emax at 1 µg/mL is 0% in assay [1] (Thanatephorus cucumeris, read-out: % efficacy observed, Tebuconazole 1.0000 mg ai/l) and 61% in the assay on Gaeumannomyces graminis (Gaeumannomyces graminis, Tebuconazole 1.0000 mg ai/l, read-out: % efficacy observed). The Emax at 2 µg/mL came out at 0% in assay [1] (Thanatephorus cucumeris, read-out: % efficacy observed, Tebuconazole 2.0000 mg ai/l) and 74% in the assay on Gaeumannomyces graminis (Gaeumannomyces graminis, Tebuconazole 2.0000 mg ai/l, read-out: % efficacy observed). In addition, the Emax at 0.25 µg/mL in the assay on Gaeumannomyces graminis (Gaeumannomyces graminis, Tebuconazole 0.2500 mg ai/l, read-out: % efficacy observed) is 43.5%. Also, the Emax at 0.5 µg/mL in the assay with Gaeumannomyces graminis (Gaeumannomyces graminis, Tebuconazole 0.5000 mg ai/l, read-out: % efficacy observed) turned out to be 47.5%.
Take `Cn1cc(C(=O)Nc2ccccc2C2CC2C2CC2)c(C(F)F)n1` (stereo not shown) [Sedaxane, sedaxane]: the “% efficacy observed” value came to 55.0% with Ustilago nuda (Sedaxane 0.0117 mg ai/l); 0.0% in assay [1] (Sedaxane 0.0469 mg ai/l); 41.1% in assay [1] (Sedaxane 0.0938 mg ai/l); 71.1% in assay [1] (Sedaxane 0.1875 mg ai/l); 72.2% in assay [1] (Sedaxane 0.3750 mg ai/l); 72.2% in assay [1] (Sedaxane 0.7500 mg ai/l). Besides, the “% efficacy observed” value in the assay on Gaeumannomyces graminis (Sedaxane 1.5000 mg ai/l) stood at 46.7%.
As to `N#Cc1c[nH]cc1-c1cccc2c1OC(F)(F)O2` [Fludioxonyl], the Emax at 0.0313 µg/mL in the assay on Ustilago nuda (Ustilago nuda, read-out: % efficacy observed) amounted to 33.1%. In assay [1] (setting [3]), the Emax at 0.125 µg/mL turned out to be 13.8%, the Emax at 0.25 µg/mL came out at 66.5%, the Emax at 0.5 µg/mL stood at 60.5% and the Emax at 1 µg/mL was 86.8%.
On to `CC1COC(Cn2cncn2)(c2ccc(Oc3ccc(Cl)cc3)cc2Cl)O1` (stereo not shown) [Difenconazole], for which the Emax at 0.5 µg/mL in the assay on Ustilago nuda (Ustilago nuda, Difenconazole 0.5000 mg ai/l, read-out: % efficacy observed) was 30%; in assay [1] (Thanatephorus cucumeris, read-out: % efficacy observed, Difenconazole 0.5000 mg ai/l) it was 0%; with Gaeumannomyces graminis (Gaeumannomyces graminis, Difenconazole 0.5000 mg ai/l, read-out: % efficacy observed), 0%. The Emax at 1 µg/mL with Ustilago nuda (Ustilago nuda, Difenconazole 1.0000 mg ai/l, read-out: % efficacy observed) was 45.9%; in assay [1] (Thanatephorus cucumeris, read-out: % efficacy observed, Difenconazole 1.0000 mg ai/l), 0%; in the assay with Gaeumannomyces graminis (Gaeumannomyces graminis, Difenconazole 1.0000 mg ai/l, read-out: % efficacy observed), 10.6%. Besides, the Emax at 2 µg/mL amounted to 60.5% in the assay with Ustilago nuda (Ustilago nuda, Difenconazole 2.0000 mg ai/l, read-out: % efficacy observed) and 39% in the assay with Gaeumannomyces graminis (Gaeumannomyces graminis, Difenconazole 2.0000 mg ai/l, read-out: % efficacy observed).
For the compound `CO/C=C(/C(=O)OC)c1ccccc1Oc1cc(Oc2ccccc2C#N)ncn1` [Azoxystrobin, azoxystrobin], the “% efficacy observed” value in the assay with Gaeumannomyces graminis (Azoxystrobin 0.0008 mg ai/l) is 40.7%; in the assay with Gaeumannomyces graminis (Azoxystrobin 0.0016 mg ai/l), 67.0%; in the assay with Gaeumannomyces graminis (Azoxystrobin 0.0031 mg ai/l), 74.8%; in the assay on Pythium ultimum (Azoxystrobin 0.0250 mg ai/l) it was 14.0%; with Pythium ultimum (Azoxystrobin 0.0500 mg ai/l), 35.6%; in the assay with Pythium ultimum (Azoxystrobin 0.1000 mg ai/l), 45.3%.
